Consider five molecules from EP2835640A1, “Method for predicting the skin sensitizing activity of a compound” (Academisch Ziekenhuis Leiden HODN Leids Universitair …, priority 2013, dated 2015).

For one data set, the system named is Monolayer keratinocytes. The experiment in a line: WST-1 cell viability assay, monolayers. The format is cell-based, human. The note with it: WST-1, 24 h of treatment. Here is the method:
Cell viability of monolayers was measured using WST-1 assay (Roche diagnostics, Mannheim, Germany). Briefly, cells were seeded in 96-well flat-bottom plates (Greiner Bio-One, Frickenhausen, Germany) in 100 µl of culture medium 24-48 h prior to chemical treatment. After 24 h of treatment with an irritant or sensitizer, 10 µl of WST-1 reagent was added and plates were further incubated up to 3 h at 37°C. […] Monolayer keratinocytes were exposed to DNCB (10 µM) and SDS (80µM) at 80% cell viability concentrations.
On the technique in general: Tetrazolium assays rely on reduction of a dye to a coloured formazan, in cell work by metabolically active cells.

Data set [1] has as its system Nrf2 dependent genes. The experiment in a line: Quantitative PCR of gene expression, monolayer primary keratinocytes. The format is cell-based, human. The note with it: 4 h, mRNA. As for the experimental part: (§1) Total RNA was prepared using RNeasy mini kit (Qiagen) according to the manufacturer's protocol. RNA was quantified using a Nanodrop ND-1000 spectrophotometer. First- strand cDNA synthesis was derived from 1 ug of total RNA using the iscript cDNA synthesis kit (Biorad) according to the manufacturer's protocol. Primers were tested in normal KC cDNA. Stability of reference genes was analyzed with the GeNorm method (Vandesompele et al., 2002). Expression analysis was performed with the BioRad software (iQ5) and was based on the delta delta Ct method with the reference genes that were most stably expressed according to the GeNorm analysis.
(§2) Expression levels of the following genes were measured: HMOX-1 (Hemeoxygenase-1), GCLM (Glutamate-cysteine ligase modifier subunit), TXNRD1 (Thioredoxin reductase 1), OSGIN-1 (oxidative stress induced growth inhibitor 1), B2M (Beta-2 microglobulin), GUSB (Glucuronidase beta) and TBP (TATA binding protein). Quantitative real-time PCR was determined by using the following primer sets: • 5'-[…]-'3 (HMOX-1), • 5'-[…]-'3 GCLM), • 5'-[…]-'3 (TXNRD1), • 5'- TGCTGCAGAGGAAGCTCAC-'3 (OSGIN1), • 5'-[…]-'3 (B2M), • 5'-[…]-'3 (GUSB), • 5'-[…]-'3 (TBP).
(§3) Real-Time PCRs were performed in 10 µl reaction volumes using the MylQ system and SYBR Green PCR Master- mix (Biorad) according to the manufacturer's protocol. […]

The test system of data set [2] is Nrf2 dependent genes. The experiment in a line: Quantitative PCR of gene expression, N/TERT monolayer cultures. The note with it: 4 h, mRNA. The format is cell-based, human. As for the experimental part: as §1, §2
Real-Time PCRs were performed in 10 µl reaction volumes using the MylQ system and SYBR Green PCR Master- mix (Biorad) according to the manufacturer's protocol.
The PCR cycles were: 3 minutes at 95 °C to activate the polymerase, 40 cycles of 20 seconds at 95 °C and 40 seconds at 60 °C, followed by the generation of a melt curve.
All qPCR values were averaged relative to the three different reference genes: B2M, GUSB, TBP. For each data point, PCRs were performed in duplicate and values represent means ± standard deviation.

Data set [3] concerns Nrf2 dependent genes. The experiment in a line: Quantitative PCR of gene expression, NEMs. Particulars: 4 h, mRNA. The format is cell-based, human. Here is the method:
Medium was refreshed every 2 days.
as §1, §2, §3

In the next data set the test system is NEMs. The experiment in a line: MTT cell viability assay, epidermal model. The note with it: topical exposure.
The conditions of data set [4]: skin sensitizing potency; cited from earlier work.
Data set [5] concerns Nrf2. The experiment in a line: Nuclear fractionation and Western blot, monolayer primary keratinocytes. The format is cell-based, human. An excerpt: (§4) Nuclear fractions of monolayer cultures and reconstructed epidermis were isolate using a Nuclear extract kit (Active motif, Carlsbad, CA) according to the manufacturer's protocol. Nuclear fractions were subjected to Western blot analysis.
(§5) Monolayer cells were lysed in M-Per buffer (Thermo Scientific, Rockford, USA), reconstructed epidermis was cut in pieces and lysed in T-Per lysis buffer (Thermo Scientific, Rockford, USA) both supplemented with protease inhibitor cocktail EDTA-free and HALTTM phosphatase inhibitors (Thermo Scientific). Cell lysates were measured using the BCATM protein assay kit (Thermo Scientific). Equal amounts of proteins were separated by SDS-page. Proteins were transferred onto PVDF- transfer membranes (Thermo Scientific). […] After four times washing with PBST, proteins were detected by enhanced chemi-luminescence (Super signal West femto (Pierce Thermo Scientific, Rockford, USA) and visualized by exposure to X-ray film (Fujifilm Europe GmbH, Düsseldorf, Germany).
(§6) Next we investigated whether Nrf2 expression could be stabilized by inhibiting the proteasome that is responsible for a constitutive degradation of Nrf2. […] Although the Nrf2 translocation was clearly visible, we used a second approach enabling quantification of the amount of translocated Nrf2. […]
A general note: In western blotting, separated proteins are transferred to a membrane and probed.

The subject of data set [6] is Nrf2. The experiment in a line: Nuclear fractionation and Western blot, N/TERT monolayer cultures. The format is cell-based, human.
Text: as §4, §5, §6

Data set [7] deals with Nrf2. The experiment in a line: Nrf2 nuclear translocation by immunohistochemical analysis, NEMs. The format is cell-based, human. Particulars: NEMs 12 days air-exposed, 4 h treatment.

Residues, ends and D or L forms follow the SMILES beside them. *: point of attachment. Cbz = O=C(OCc1ccccc1)*

For `O=[N+]([O-])c1ccc(Cl)c([N+](=O)[O-])c1` [DNCB, 2,4-dinitrochlorobenzene], the “80% cell viability concentrations” value in the data set with Monolayer keratinocytes is on record as 10 µM. In the data set with Nrf2 dependent genes [1], the “Expression of GCLM” value was “approx. 1,2 fold” and the “Expression of OSGIN-1” value was “approx. 1,2 fold”. In the data set on Nrf2 dependent genes [2], the “Expression of GCLM” value is reported as “approx. 1,2 fold”, the “Expression of OSGIN-1” value is listed as “approx. 1,2 fold” and the “Expression of TXNRD-1” value is on record as “approx. 1,2 fold”. For the same molecule, in the data set with Nrf2 dependent genes [3], the “Expression of GLCM” value was “approx. 3,2 fold” and the “Expression of OSGIN-1” value is listed as “approx. 2 fold”. In addition, the “concentrations of 80 - 85% CV” value in the data set on NEMs amounted to 500 µM.
As for `CC=Cc1ccc(O)c(OC)c1` [IsoEu, Isoeugenol], in [4], the Potency category result was “moderate”. Moreover, the “concentrations of 80 - 85% CV” value in the data set with NEMs is 15000 µM.
With `CC(C)C[C@@H](C=O)NC(=O)[C@H](CC(C)C)NC(=O)[C@H](CC(C)C)NC(=O)OCc1ccccc1` [MG132] (Cbz-Leu-Leu-Leu-aldehyde), the “Nrf2 protein levels in nuclear lysates” value with Nrf2 [5] and with Nrf2 [6] was “elevated levels of Nrf2” each time.
As for `Nc1ccc(N)cc1` [PPD, p-Phenylenediamine], the “concentrations of 80 - 85% CV” value in the data set on NEMs worked out at 35000 µM.
For `CCCCCCCCCCCCOS(=O)(=O)[O-].[Na+]` [SDS, Sodium Dodecyl Sulfate], the “80% cell viability concentrations” value with Monolayer keratinocytes turned out to be 80 µM. In addition, the “Nrf2 in the nuclei” value in the data set on Nrf2 [7] is given as “Nrf2 was only translocated to the nucleus after DNCB treatment”.
